In assay [1] the target is Cyclin-dependent kinase 12 (Homo sapiens, UniProt Q9NYV4).
For assay [2], the target named is Non-receptor tyrosine-protein kinase TYK2 (Homo sapiens, UniProt P29597).
In assay [3] the target is Tyrosine-protein kinase Fer (Homo sapiens, UniProt P16591).
Assay [4] has as its target T1, Serine/threonine-protein kinase ICK (Homo sapiens, UniProt Q9UPZ9).
T1 sequence (Q9UPZ9 whole entry): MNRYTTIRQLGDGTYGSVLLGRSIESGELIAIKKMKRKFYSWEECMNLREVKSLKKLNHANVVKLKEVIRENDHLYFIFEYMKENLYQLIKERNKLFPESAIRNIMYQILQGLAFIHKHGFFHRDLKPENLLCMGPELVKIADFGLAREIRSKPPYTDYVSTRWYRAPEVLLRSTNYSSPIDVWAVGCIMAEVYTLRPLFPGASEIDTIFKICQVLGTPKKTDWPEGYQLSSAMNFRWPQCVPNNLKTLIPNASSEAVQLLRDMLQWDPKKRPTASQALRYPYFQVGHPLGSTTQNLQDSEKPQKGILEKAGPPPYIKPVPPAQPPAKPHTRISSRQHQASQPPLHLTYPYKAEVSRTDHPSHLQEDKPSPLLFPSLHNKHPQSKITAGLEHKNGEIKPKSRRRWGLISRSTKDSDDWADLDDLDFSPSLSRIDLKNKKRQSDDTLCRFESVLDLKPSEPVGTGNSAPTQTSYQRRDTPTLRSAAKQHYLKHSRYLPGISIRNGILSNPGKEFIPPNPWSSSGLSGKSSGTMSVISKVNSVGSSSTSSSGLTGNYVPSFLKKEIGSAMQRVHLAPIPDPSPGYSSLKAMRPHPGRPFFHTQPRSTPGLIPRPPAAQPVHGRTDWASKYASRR

Assay [5] has as its target cAMP-dependent protein kinase catalytic subunit beta (Homo sapiens, UniProt P22694).
In assay [6] the target is Protein-tyrosine kinase 2-beta (Homo sapiens, UniProt Q14289).
Sequence of Protein-tyrosine kinase 2-beta (Q14289 whole entry): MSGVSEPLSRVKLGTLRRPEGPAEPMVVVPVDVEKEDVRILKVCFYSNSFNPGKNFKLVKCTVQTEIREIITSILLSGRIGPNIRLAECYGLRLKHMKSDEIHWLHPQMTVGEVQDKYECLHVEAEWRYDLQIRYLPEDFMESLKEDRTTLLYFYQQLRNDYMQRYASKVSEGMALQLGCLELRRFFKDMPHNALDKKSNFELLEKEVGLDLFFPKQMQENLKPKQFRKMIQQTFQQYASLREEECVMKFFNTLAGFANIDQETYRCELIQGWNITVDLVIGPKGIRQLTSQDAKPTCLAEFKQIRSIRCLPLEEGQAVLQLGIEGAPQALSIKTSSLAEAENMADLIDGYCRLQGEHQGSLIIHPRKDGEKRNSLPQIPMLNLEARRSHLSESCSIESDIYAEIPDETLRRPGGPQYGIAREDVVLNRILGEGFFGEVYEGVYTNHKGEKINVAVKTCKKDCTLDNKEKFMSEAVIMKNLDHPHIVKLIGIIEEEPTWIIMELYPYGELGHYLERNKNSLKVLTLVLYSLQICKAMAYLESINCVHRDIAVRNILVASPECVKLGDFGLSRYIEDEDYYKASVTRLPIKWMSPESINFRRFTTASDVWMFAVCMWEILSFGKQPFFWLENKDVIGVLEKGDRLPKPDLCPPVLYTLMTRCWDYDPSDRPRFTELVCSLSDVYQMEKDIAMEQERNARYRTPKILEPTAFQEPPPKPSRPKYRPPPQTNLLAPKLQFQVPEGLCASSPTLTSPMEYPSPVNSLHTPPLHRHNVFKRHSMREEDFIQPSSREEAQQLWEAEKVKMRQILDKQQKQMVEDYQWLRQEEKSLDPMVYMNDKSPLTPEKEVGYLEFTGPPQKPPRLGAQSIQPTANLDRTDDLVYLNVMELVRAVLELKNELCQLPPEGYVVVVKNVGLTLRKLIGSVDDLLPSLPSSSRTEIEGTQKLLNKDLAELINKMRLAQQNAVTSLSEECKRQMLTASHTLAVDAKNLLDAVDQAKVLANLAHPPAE
For assay [7], the target named is Tyrosine-protein kinase JAK1 (Homo sapiens, UniProt P23458).
Sequence of Tyrosine-protein kinase JAK1 (P23458 whole entry): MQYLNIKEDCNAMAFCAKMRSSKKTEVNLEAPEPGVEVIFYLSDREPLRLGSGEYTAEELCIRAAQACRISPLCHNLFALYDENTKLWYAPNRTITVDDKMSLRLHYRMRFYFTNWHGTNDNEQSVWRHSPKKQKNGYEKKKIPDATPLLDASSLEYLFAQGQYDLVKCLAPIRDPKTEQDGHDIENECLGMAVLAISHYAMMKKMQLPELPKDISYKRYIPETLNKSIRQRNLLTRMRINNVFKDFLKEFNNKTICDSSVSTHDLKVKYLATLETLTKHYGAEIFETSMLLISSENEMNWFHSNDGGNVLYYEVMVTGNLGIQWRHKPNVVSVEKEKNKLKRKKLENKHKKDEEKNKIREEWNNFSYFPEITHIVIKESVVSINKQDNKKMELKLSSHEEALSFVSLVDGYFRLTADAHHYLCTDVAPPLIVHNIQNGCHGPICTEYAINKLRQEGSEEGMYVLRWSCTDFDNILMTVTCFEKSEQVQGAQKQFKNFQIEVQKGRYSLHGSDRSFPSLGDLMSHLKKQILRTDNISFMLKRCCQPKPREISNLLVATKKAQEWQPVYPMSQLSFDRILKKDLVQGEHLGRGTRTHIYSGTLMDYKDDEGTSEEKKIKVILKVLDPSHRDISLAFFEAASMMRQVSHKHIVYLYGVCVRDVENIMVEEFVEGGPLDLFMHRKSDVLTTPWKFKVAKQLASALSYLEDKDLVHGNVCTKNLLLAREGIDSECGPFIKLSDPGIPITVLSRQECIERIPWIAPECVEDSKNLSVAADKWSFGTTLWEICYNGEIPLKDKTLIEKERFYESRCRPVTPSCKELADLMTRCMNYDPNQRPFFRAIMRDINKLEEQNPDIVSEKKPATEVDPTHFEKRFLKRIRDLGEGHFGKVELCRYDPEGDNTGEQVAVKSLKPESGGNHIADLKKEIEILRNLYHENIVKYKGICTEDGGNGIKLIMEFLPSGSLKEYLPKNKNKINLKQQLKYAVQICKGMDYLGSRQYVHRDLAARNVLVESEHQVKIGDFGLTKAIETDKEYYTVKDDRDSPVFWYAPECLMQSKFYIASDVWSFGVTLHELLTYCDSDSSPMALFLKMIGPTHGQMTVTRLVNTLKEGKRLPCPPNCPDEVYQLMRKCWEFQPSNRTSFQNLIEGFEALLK
In assay [8] the target is T2, ATP-dependent RNA helicase DDX1 (Homo sapiens, UniProt Q92499).
T2 sequence (Q92499 whole entry): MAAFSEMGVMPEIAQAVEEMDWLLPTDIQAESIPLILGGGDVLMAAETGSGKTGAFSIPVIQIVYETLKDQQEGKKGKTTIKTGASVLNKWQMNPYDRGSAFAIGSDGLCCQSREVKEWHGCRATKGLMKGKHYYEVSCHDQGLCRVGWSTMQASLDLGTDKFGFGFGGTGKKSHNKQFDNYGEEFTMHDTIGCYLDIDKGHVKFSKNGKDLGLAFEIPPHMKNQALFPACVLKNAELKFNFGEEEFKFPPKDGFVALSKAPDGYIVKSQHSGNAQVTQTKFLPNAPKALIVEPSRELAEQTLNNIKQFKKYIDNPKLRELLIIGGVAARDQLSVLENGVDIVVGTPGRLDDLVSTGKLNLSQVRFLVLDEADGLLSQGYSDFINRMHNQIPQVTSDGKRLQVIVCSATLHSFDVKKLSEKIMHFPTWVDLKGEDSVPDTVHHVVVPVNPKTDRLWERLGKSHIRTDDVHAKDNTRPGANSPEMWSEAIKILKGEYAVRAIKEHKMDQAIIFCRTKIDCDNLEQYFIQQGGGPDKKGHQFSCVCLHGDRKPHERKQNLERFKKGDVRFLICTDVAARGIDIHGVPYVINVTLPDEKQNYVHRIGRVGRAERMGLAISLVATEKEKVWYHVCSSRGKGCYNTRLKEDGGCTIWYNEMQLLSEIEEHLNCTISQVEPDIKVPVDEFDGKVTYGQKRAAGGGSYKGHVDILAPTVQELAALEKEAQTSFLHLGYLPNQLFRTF

Assay [9] concerns the target Mitotic checkpoint serine/threonine-protein kinase BUB1 (Homo sapiens, UniProt O43683).
Assay [10] concerns the target T3, Ras-related protein Rab-27A (Homo sapiens, UniProt P51159).
T3 sequence (P51159 whole entry): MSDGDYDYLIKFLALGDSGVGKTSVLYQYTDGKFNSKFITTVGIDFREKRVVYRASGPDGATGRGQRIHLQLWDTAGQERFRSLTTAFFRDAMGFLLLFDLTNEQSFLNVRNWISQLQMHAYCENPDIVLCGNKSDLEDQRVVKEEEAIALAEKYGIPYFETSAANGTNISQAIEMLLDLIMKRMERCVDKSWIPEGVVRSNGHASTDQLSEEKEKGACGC

The target of assay [11] is Casein kinase I isoform delta (Homo sapiens, UniProt P48730).
Sequence of Casein kinase I isoform delta (P48730 whole entry, canonical isoform): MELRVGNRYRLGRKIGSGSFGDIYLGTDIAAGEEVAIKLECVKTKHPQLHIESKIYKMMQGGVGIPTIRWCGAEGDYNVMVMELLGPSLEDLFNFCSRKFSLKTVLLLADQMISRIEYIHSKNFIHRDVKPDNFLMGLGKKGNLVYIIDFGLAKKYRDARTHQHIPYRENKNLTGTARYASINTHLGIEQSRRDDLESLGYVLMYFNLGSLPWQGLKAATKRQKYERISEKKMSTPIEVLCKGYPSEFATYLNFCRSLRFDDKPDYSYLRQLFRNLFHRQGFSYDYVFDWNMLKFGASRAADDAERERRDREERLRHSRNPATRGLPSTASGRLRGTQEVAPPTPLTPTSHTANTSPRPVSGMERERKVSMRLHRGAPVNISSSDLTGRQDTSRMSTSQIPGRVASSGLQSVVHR
Assay [12] concerns the target T4, Mitogen-activated protein kinase kinase kinase kinase 3 (Homo sapiens, UniProt Q8IVH8).
T4 sequence (Q8IVH8 whole entry): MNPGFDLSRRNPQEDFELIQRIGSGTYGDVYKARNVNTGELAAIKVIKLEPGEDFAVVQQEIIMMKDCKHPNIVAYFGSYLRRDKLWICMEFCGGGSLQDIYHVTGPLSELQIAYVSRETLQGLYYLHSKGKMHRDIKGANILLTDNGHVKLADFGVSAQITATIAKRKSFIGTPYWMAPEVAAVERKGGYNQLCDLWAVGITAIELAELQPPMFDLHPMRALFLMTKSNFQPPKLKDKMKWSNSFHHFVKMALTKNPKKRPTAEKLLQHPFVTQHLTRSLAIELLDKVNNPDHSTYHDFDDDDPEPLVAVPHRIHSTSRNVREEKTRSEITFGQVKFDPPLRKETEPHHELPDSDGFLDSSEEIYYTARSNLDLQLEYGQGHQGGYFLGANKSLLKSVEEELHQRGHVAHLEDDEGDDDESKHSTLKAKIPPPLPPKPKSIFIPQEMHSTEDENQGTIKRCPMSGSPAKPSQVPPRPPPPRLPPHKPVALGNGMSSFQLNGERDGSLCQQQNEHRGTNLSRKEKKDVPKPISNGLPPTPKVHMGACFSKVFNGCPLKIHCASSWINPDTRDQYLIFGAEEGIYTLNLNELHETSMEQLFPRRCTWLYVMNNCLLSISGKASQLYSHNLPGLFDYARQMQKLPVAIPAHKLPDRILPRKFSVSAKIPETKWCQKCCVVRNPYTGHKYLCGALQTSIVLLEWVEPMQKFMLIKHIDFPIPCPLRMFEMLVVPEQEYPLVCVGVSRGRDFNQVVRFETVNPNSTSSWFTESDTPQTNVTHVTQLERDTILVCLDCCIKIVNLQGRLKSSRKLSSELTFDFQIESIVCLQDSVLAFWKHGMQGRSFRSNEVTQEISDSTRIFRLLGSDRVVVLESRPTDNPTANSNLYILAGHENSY

Activity calls are given as the source filed them. Rule as the data show it, for most assays here: actives have a measured Kd and inactives only a lower limit.
Also: in the data inactive means no Kd found up to 30 µM.

Sequence of Tyrosine-protein kinase Fer (P16591 whole entry): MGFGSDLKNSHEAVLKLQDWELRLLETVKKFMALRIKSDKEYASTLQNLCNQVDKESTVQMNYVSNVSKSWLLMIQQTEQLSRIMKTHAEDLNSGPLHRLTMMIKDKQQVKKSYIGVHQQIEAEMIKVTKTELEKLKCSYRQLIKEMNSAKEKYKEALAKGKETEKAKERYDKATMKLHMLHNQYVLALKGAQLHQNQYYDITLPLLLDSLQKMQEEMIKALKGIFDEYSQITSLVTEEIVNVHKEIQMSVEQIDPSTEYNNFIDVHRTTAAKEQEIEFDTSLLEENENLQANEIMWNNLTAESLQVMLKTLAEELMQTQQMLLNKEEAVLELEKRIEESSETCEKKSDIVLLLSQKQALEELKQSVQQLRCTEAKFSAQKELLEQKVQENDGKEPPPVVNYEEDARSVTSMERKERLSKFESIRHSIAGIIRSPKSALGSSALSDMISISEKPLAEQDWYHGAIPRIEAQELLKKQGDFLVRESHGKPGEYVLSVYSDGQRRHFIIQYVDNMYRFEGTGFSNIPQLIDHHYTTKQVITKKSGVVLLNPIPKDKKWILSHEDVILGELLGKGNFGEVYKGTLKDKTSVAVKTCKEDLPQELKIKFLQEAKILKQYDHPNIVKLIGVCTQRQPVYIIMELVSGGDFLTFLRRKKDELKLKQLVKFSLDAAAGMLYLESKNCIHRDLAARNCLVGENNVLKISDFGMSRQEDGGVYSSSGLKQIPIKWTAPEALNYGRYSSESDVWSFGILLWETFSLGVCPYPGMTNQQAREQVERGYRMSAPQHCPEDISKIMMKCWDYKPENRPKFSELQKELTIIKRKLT
Sequence of Non-receptor tyrosine-protein kinase TYK2 (P29597 whole entry): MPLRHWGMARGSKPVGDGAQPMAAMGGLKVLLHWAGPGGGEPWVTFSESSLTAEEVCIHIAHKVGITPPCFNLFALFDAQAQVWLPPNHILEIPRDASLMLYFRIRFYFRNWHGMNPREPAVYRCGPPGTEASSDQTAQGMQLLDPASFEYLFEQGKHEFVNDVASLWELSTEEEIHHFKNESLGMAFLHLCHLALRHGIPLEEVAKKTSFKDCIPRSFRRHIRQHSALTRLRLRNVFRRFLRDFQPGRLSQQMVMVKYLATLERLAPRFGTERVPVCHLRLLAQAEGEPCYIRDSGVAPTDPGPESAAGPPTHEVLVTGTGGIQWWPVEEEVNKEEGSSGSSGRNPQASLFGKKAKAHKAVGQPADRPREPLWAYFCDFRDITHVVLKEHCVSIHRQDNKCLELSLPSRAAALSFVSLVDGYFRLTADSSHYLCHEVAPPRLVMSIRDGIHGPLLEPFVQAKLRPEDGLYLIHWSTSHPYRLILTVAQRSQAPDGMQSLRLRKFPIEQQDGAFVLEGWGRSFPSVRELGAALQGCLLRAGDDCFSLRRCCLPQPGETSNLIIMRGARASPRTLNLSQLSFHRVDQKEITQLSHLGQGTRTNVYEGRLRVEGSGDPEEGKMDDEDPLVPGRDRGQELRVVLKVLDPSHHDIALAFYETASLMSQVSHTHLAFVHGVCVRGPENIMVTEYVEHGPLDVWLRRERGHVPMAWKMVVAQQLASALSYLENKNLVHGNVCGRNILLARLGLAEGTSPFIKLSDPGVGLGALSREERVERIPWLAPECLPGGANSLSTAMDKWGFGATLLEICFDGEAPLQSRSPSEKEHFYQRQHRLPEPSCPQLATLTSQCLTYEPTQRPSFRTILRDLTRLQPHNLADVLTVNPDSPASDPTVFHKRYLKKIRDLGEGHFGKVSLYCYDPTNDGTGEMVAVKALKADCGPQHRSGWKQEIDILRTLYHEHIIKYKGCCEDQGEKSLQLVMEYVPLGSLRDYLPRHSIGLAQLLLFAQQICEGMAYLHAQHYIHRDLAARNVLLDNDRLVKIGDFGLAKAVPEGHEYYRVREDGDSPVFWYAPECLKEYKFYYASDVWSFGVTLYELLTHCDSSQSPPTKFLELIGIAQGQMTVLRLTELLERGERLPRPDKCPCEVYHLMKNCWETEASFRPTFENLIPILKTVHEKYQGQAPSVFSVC

The Kd is the concentration at which binding is half-saturated. Take `Cn1cc(-c2ccc(F)c(C(F)(F)F)c2)nc1C1CCN(c2ncnc3[nH]ncc23)CC1` [LY-2584702]: the Kd in assay [1], in assay [2], in [3], in assay [4], in [5] and in assay [6] was > 30 µM (inactive) in each case. The Kd in assay [7], in [8], in assay [9], in assay [10], in [11] and in [12] was > 30 µM (inactive) each time.
Regarding `CN(C)C(=O)c1cc2cnc(Nc3ccc(N4CCNCC4)cn3)nc2n1C1CCCC1` [RIBOCICLIB], the Kd in [1], in [2], in assay [3], in [4], in assay [5] and in assay [6] was > 30 µM (inactive) each time. The Kd in assay [7], in assay [8], in assay [9], in assay [10], in assay [11] and in assay [12] was > 30 µM (inactive) each time.
`O=C(Nc1ccc(-c2ccnc(Nc3ccc(N4CCOCC4)cc3)n2)cc1)C1CCCN1` (stereo unspecified) [XL-019]: the Kd in assay [1], in assay [2], in assay [3], in assay [4], in [5] and in assay [6] was > 30 µM (inactive) throughout. Moreover, the Kd in assay [7] is > 30 µM (inactive); in assay [8], > 30 µM (inactive); in [9], 0.39 µM (active); in assay [10], > 30 µM (inactive); in [11] it was > 30 µM (inactive); in [12], > 30 µM (inactive).
For `CNC(=O)CN1CCC(Oc2cc3c(Nc4cccc(Cl)c4F)ncnc3cc2OC)CC1` [SAPITINIB], the Kd in assay [1], in assay [2], in [3], in [4], in assay [5] and in assay [6] was > 30 µM (inactive) throughout. Also, the Kd in assay [7], in assay [8], in assay [9], in assay [10], in assay [11] and in assay [12] was > 30 µM (inactive) each time.
`Cc1cc([C@@H](C)Nc2ccccc2C(=O)O)c2nc(N3CCOCC3)cc(=O)n2c1` [AZD-6482]: the Kd in assay [1], in assay [2], in [3], in [4], in assay [5] and in assay [6] was > 30 µM (inactive) in each case. In addition, the Kd in assay [7], in [8], in [9], in assay [10], in [11] and in assay [12] was > 30 µM (inactive) throughout.
For `CCN1CCN(Cc2ccc(-c3cc4c(N[C@H](C)c5ccccc5)ncnc4[nH]3)cc2)CC1` [AEE-788], the Kd in assay [1], in assay [2], in [3], in assay [4], in [5] and in assay [6] was > 30 µM (inactive) in each case. Moreover, the Kd in assay [7], in assay [8], in assay [9], in assay [10], in assay [11] and in assay [12] was > 30 µM (inactive) in each case.
On to `CN1N=C(N)c2cn([C@@H]3O[C@H](COP(=O)(O)O)[C@@H](O)[C@H]3O)c3ncnc1c23` [TRICIRIBINE PHOSPHATE], for which the Kd in [1], in [2], in assay [3], in [4], in assay [5] and in assay [6] was > 30 µM (inactive) each time. In addition, the Kd in [7], in assay [8], in assay [9], in assay [10], in [11] and in [12] was > 30 µM (inactive) throughout.
Take `CC(=O)Nc1cccc(-n2c(=O)n(C3CC3)c(=O)c3c(Nc4ccc(I)cc4F)n(C)c(=O)c(C)c32)c1` [TRAMETINIB]: the Kd in [1], in assay [2], in assay [3], in [4], in assay [5] and in assay [6] was > 30 µM (inactive) in each case. The Kd in [7], in assay [8], in [9], in [10], in [11] and in [12] was > 30 µM (inactive) in each case.

For the origin of these results see ChEMBL document CHEMBL3991601, “The target landscape of clinical kinase drugs” (Science, 2017).
